Read-outs that look alike come from different tables or passages of the source.
Experiments:
UGT2B (heading: UGT2B4) [1] = assay: in vitro; conditions: avian (mallards and a swan), pH 7.4
UGT2B [2] = assay: p-nitrophenol glucuronidation activity in mouse liver microsomes
UGT2B (heading: UGT2B4) [3] = assay: as above; conditions: BALB/c, mouse
CYP3A [4] = assay: CYP3A catalytic activity (erythromycin N-demethylation) in pooled human liver microsomes; conditions: for activity at 30 min: human, pH 7.4, probe erythromycin, % of control (catalytic activity at IC50), compound at estimated IC50 (1 µM where none reported)
Description: (§1) CYP3A catalytic activity was determined using the erythromycin N-demethylation activity assay, as described [78]. The reaction mixture (final volume of 1 mL and final protein concentration of 1 mg) contained 500 µL of microsomes in 0.1 M phosphate buffer (pH 7.4) and 400 µL of erythromycin buffer (0.45 mM), and 50 µL of the test compound was pre-warmed at 37 °C for 2 min. The reaction was initiated with 50 µL of 2.5 mM nicotinamide adenine dinucleotide phosphate (NADP^+) and incubated for 30 min at 37 °C. […] The tubes were vortexed and left for 5 min (at room temperature), and then 330 µL of saturated barium hydroxide was added. The tubes were further vortexed and left for 5 min (at room temperature). The tubes were then centrifuged at 1800× g for 10 min. To 830 µL of the supernatant, 330 µL of Nash reagent (30% (w/v) ammonium acetate, 0.4% (v/v) acetylacetone) was added and further incubated for 30 min at 60 °C. The blank tube contained 330 µL of Nash reagent and 830 µL of Milli-Q water. […] The CYP3A activities were determined in nmol/mg/min using standard curve data. Results presented are the mean ± SEM of 3 independent experiments performed in duplicate unless otherwise stated.

CYP3A [5] = assay: CYP3A catalytic activity (erythromycin N-demethylation) in possum liver microsomes; conditions: for Percent control catalytic activity at estimated IC50 / Percent control catalytic activity at estimated 2-fold IC50: possum liver microsomes, initial screen n=1; for Percent control catalytic activity at estimated IC50: compounds without reported IC50 at 1 µM; for Percent control catalytic activity at estimated 2-fold IC50: compounds without reported IC50 at 5 µM
UGT2B [6] = assay: p-nitrophenol glucuronidation activity in possum liver microsomes; assay type: biochemical, possum (Trichosurus vulpecula); conditions: for % of control (UGT2B4 catalytic activity at 2-fold IC50) / UGT2B4 catalytic activity at 2-fold IC50: compound at estimated 2-fold IC50
UGT2B (heading: UGT2B4) [7] = assay: as above; assay type: biochemical, possum (Trichosurus vulpecula); conditions: possum (Trichosurus vulpecula), pH 7.4, compound at estimated IC50, read-out: % of control (UGT2B4 catalytic activity at IC50)
CYP3A [8] = assay: CYP3A catalytic activity (erythromycin N-demethylation) in mouse liver microsomes; conditions: for Percent control catalytic activity at estimated IC50 / Percent control catalytic activity at estimated 2-fold IC50: mouse liver microsomes, initial screen n=1; for Percent control catalytic activity at estimated IC50: compounds without reported IC50 at 1 µM; for Percent control catalytic activity at estimated 2-fold IC50: compounds without reported IC50 at 5 µM
Description: (§2) Possums were collected from the Otago Peninsula (Dunedin) and the Okuti Valley, Banks Peninsula (Christchurch) in New Zealand in collaboration with the Otago Peninsula Biodiversity Group and Manaaki Whenua-Landcare Research, respectively. […] Possums were caged and humanely killed by a blow to the head, and the livers were harvested, snap-frozen in liquid nitrogen, and stored in a freezer at −80 °C until the preparation of microsomal fractions. […] Mice were euthanised by carbon dioxide inhalation and the livers were removed and microsomes prepared. […] The livers from avian species (mallards and a swan) were kindly donated by a local bird hunting group based in Dunedin, New Zealand. The livers from avian species were treated similarly to those mentioned above for the possum samples.
(§3) Microsomal preparation was carried out as previously described [76]. […] All procedures were performed at 0–4 °C. The liver samples were minced and homogenised in Buffer A (0.1 M Tris, 0.1 M potassium chloride, 1 mM EDTA, and 20 μM butylated hydroxytoluene, at pH = 7.4) using the Teflon-glass homogeniser (5–6 vertical passes). The samples were centrifuged at 10,000× g for 20 min. The supernatant was then transferred into another set of centrifuge tubes and spun at 100,000× g for 60 min. The pellet was resuspended in Buffer B (0.1 M potassium pyrophosphate, 1 mM EDTA, and 20 μM butylated hydroxytoluene, at pH = 7.4), homogenised, and recentrifuged at 100,000× g for 60 min. Finally, the pellet was homogenised in 1–2 mL of Buffer C (10 mM Tris-HCl, 1 mM EDTA, and 4% glycerol (v/v)), and stored at −80 °C until use. The protein concentration of the microsomes was determined using the bicinchoninic acid (BCA) method [77].
as §1

CYP3A [9] = conditions: avian; compound at estimated 2-fold IC50 (5 µM where none reported)
Description: as §2, §3, §1

UGT2B [10] = conditions: avian; compound at estimated 2-fold IC50
UGT2B [11] = assay: p-nitrophenol glucuronidation activity in pooled human liver microsomes
UGT2B (heading: UGT2B4) [12] = assay: as above; conditions: human, pooled human liver microsomes (50 donors), pH 7.4, probe p-nitrophenol (0.5 mM final, from 50 µL of 5 mM in 500 µL)
[13] = mouse, compound at estimated 2-fold IC50
[14] = compound at estimated 2-fold IC50 (5 µM where none reported)
[15] = possum, compound at estimated 2-fold IC50 (5 µM where none reported)
[16] = mouse, compound at estimated 2-fold IC50 (5 µM where none reported)
[17] = liver microsomes, pH 7.4, probe p-nitrophenol (0.5 mM final, from 50 µL of 5 mM in 500 µL)

| SMILES | activity at 30 min (UGT2B (heading: UGT2B4) [1]) [%] | activity at 30 min (UGT2B (heading: UGT2B4) [3]; pH 7.4) [%] | activity at 30 min (CYP3A [4]) [%] | Percent control catalytic activity at estimated IC50 (CYP3A [5]) [percent control] | Percent control catalytic activity at estimated 2-fold IC50 (CYP3A [5]) [percent control] | % of control (UGT2B4 catalytic activity at 2-fold IC50) (UGT2B [6]) | UGT2B4 catalytic activity at 2-fold IC50 (UGT2B [6]) [µmol/mg/min] | activity at 30 min (UGT2B (heading: UGT2B4) [7]) [%] | Percent control catalytic activity at estimated IC50 (CYP3A [8]) [percent control] | Percent control catalytic activity at estimated 2-fold IC50 (CYP3A [8]) [percent control] | % of control (UGT2B4 catalytic activity at 2-fold IC50) (UGT2B [10]) | UGT2B4 catalytic activity at 2-fold IC50 (UGT2B [10]) [µmol/mg/min] | activity at 30 min (UGT2B (heading: UGT2B4) [3]; [17]) [%] | activity at 30 min (UGT2B (heading: UGT2B4) [12]) [%] | other results |
| --- | --- | --- | --- | --- | --- | --- | --- | --- | --- | --- | --- | --- | --- | --- | --- |
| CC[C@H]1OC(=O)[C@H](C)[C@@H](O[C@H]2C[C@@](C)(OC)[C@@H](O)[C@H](C)O2)[C@H](C)[C@@H](O[C@@H]2O[C@H](C)C[C@H](N(C)C)[C@H]2O)[C@](C)(OC)C[C@@H](C)C(=O)[C@H](C)[C@@H](O)[C@]1(C)O [Clarithromycin] | 110 | 120 | 95 | 90 | 117 | 96 % of control | 3.51 ± 0.28 | 108 | 89 | 81 | 48 % of control | 0.20 ± 0.08 | – | – | % of control (UGT2B4 catalytic activity at 2-fold IC50) (UGT2B [2]; [13]): 90 % of control; UGT2B4 catalytic activity at 2-fold IC50 (UGT2B [2]; [13]): 1.77 ± 0.12 µmol/mg/min; % of control (catalytic activity at 2-fold IC50) (CYP3A [4]; [14]): 91 % of control; Catalytic activity at 2-fold IC50 (CYP3A [4]; [14]): 0.59 nmol/mg/min; % of control (catalytic activity at 2-fold IC50) (CYP3A [5]; [15]): 103 % of control; Catalytic activity at 2-fold IC50 (CYP3A [5]; [15]): 0.43 ± 0.01 nmol/mg/min; % of control (catalytic activity at 2-fold IC50) (CYP3A [8]; [16]): 95 % of control; Catalytic activity at 2-fold IC50 (CYP3A [8]; [16]): 0.60 ± 0.09 nmol/mg/min; % of control (catalytic activity at 2-fold IC50) (CYP3A [9]): 94 % of control; Catalytic activity at 2-fold IC50 (CYP3A [9]): 0.41 ± 0.07 nmol/mg/min |
| O=C(/C=C/C=C/c1ccc2c(c1)OCO2)N1CCCCC1 [Piperine] | 84 | – | – | 127 | 121 | 103 % of control | 4.29 ± 0.17 | 103 | 126 | 107 | 86 % of control | 0.55 ± 0.06 | 113 | 94 | % of control (UGT2B4 catalytic activity at 2-fold IC50) (UGT2B [2]): 99; UGT2B4 catalytic activity at 2-fold IC50 (UGT2B [2]): 2.70±0.07; % of control (UGT2B4 catalytic activity at 2-fold IC50) (UGT2B [11]): 92; UGT2B4 catalytic activity at 2-fold IC50 (UGT2B [11]): 3.62 |
| OC(Cn1cncn1)(Cn1cncn1)c1ccc(F)cc1F [Fluconazole] | 224 | 81 | 91 | 107 | – | – | – | 93 | 70 | – | – | – | – | 112 | p-nitrophenol glucuronidation (UGT2B) activity, % of the control (UGT2B [6]; at estimated IC50 and 2-fold IC50 values): > 65 % of the control |
| CC(C)c1nc(CN(C)C(=O)N[C@@H](CCN2CCOCC2)C(=O)N[C@H](CC[C@H](Cc2ccccc2)NC(=O)OCc2cncs2)Cc2ccccc2)cs1 [Cobicistat] | 33 | – | – | – | – | – | – | – | – | – | – | – | 104 | 110 | – |

— article PMC10253456, “Investigating the Contribution of Major Drug-Metabolising Enzymes to Possum-Specific Fertility Control” (International Journal of Molecular Sciences, 2023)
